Source: patent US9561228B2 (Celgene Avilomics Research, Inc., priority 2013, dated 2017)

Key:
Format in all cases: cell-based
[1] = test system: ERK1/2 phosphorylation of p90RSK in A375 cells; assay: Detection of total and phosphor-RSK by MSD ELISA (A375); settings: Homo sapiens, A-375, read-out: ERK1/ERK2 PRSK A375 EC50
Outline: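 Electrochemiluminescent MSD ELISA: common RSK capture antibody, with pRSK Ser380 or total RSK detection antibodies plus SulfoTag secondaries. Samples were lysates of A375 cells exposed to compound for 2 h at 37° C after overnight culture in 0.1% FBS DMEM.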

[2] = test system: HCT116 cells (colorectal carcinoma); assay: Inhibition of cancer cell proliferation, HCT116 (CellTiterGlo, 72 hours); settings: Homo sapiens, HCT-116
Outline: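 3000 cells per well exposed to 3-fold serial compound dilutions from 5,000 nM (two-fold solution, stock level) for 72 hours at 37° C. CellTiterGlo luminescence converted to cell number via a standard curve; percent inhibition vs untreated wells, GI50 by curve fit.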

[3] = test system: A375 cells (malignant melanoma); assay: Inhibition of cancer cell proliferation, A375 (CellTiterGlo, 72 hours); settings: Homo sapiens, A-375
Outline: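 GI50 derived from % growth inhibition relative to untreated wells, after luminescence (CellTiterGlo, 10 min) was converted to cell counts using a standard curve. Compound given as 3-fold dilutions from a 2× 5,000 nM stock in serum-free DMEM; 3000 A375 cells/well, 72 h culture at 37 °C.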

Row | SMILES | EC50 [1] | GI50 [2] | GI50 [3]
1 | C=CC(=O)Nc1cc(C)ccc1Nc1nc(Nc2cc(C)nc(OC)c2)ncc1C(F)(F)F [Compound I-295, N-(2-((2-((2-methoxy-6-methylpyridin-4-yl)amino)-5-(trifluoromethyl)pyrimidin-4-yl)amino)-5-methylphenyl)acrylamide] | < 100 nM | – | –
2 | C=CC(=O)Nc1cc(OC)ccc1Nc1nc(Nc2cc(Cl)nc(OC)c2)ncc1Cl [Compound I-245, N-(2-((5-chloro-2-((2-chloro-6-methoxypyridin-4-yl)amino)pyrimidin-4-yl)amino)-5-methoxyphenyl)acrylamide] | – | 101 to 500 nM | 101 to 500 nM
3 | C=CC(=O)Nc1ccccc1Nc1nc(Nc2ccnc(F)c2)ncc1C(F)(F)F [Compound I-287, N-(2-((2-((2-Fluoropyridin-4-yl)amino)-5-(trifluoromethyl)pyrimidin-4-yl)amino)phenyl)acrylamide] | < 100 nM | – | –
4 | C=CC(=O)Nc1cc(C)ccc1Nc1nc(Nc2cc(C(N)=O)ccn2)ncc1Cl [Compound I-238, 2-((4-((2-acrylamido-4-methylphenyl)amino)-5-chloropyrimidin-2-yl)amino)isonicotinamide] | – | > 1000 nM | 101 to 500 nM
5 | C=CC(=O)Nc1ccccc1Nc1nc(Nc2cc(Cl)nc(OC)c2)ncc1Cl [Compound I-246, N-(2-((5-chloro-2-((2-chloro-6-methoxypyridin-4-yl)amino)pyrimidin-4-yl)amino)phenyl)acrylamide] | – | 101 to 500 nM | < 100 nM
6 | C=CC(=O)Nc1cc(C)ccc1Nc1nc(Nc2ccnc(F)c2)ncc1C(F)(F)F [Compound I-288, N-(2-((2-((2-Fluoropyridin-4-yl)amino)-5-(trifluoromethyl)pyrimidin-4-yl)amino)-5-methylphenyl)acrylamide] | 101 to 500 nM | – | –
7 | C=CC(=O)Nc1cc(C)ccc1Nc1nc(Nc2cc(OC)ccc2C)ncc1C(F)(F)F [Compound I-341, N-(2-((2-((5-methoxy-2-methylphenyl)amino)-5-(trifluoromethyl)pyrimidin-4-yl)amino)-5-methylphenyl)acrylamide] | > 1000 nM | – | –

More lines, now with the values ahead:

Row | EC50 [1] | GI50 [2] | GI50 [3] | SMILES
8 | – | 101 to 500 nM | 101 to 500 nM | C=CC(=O)Nc1ccccc1Nc1nc(N[C@H]2CCN(S(C)(=O)=O)C2)ncc1C(F)(F)F [Compound I-58, (S)—N-(2-((2-((1-(Methylsulfonyl)pyrrolidin-3-yl)amino)-5-(trifluoromethyl)pyrimidin-4-yl)amino)phenyl)acrylamide]
9 | – | 501 to 999 nM | > 1000 nM | C=CC(=O)Nc1ccccc1Nc1nc(N[C@@H]2CCN(C(C)=O)C2)ncc1C(F)(F)F [Compound I-60, (R)—N-(2-((2-((1-Acetylpyrrolidin-3-yl)amino)-5-(trifluoromethyl)pyrimidin-4-yl)amino)phenyl)acrylamide]
10 | – | 501 to 999 nM | 101 to 500 nM | C=CC(=O)Nc1ccccc1Nc1nc(N[C@H]2CCN(C(=O)OC)C2)ncc1C(F)(F)F [Compound I-59, (S)-methyl 3-((4-((2-Acrylamidophenyl)amino)-5-(trifluoromethyl)pyrimidin-2-yl)amino)pyrrolidine-1-carboxylate]
11 | – | 101 to 500 nM | 101 to 500 nM | C=CC(=O)Nc1ccccc1Nc1nc(N[C@H]2CCN(C(=O)CO)C2)ncc1C(F)(F)F [Compound I-57, (S)—N-(2-((2-((1-(2-Hydroxyacetyl)pyrrolidin-3-yl)amino)-5-(trifluoromethyl)pyrimidin-4-yl)amino)phenyl)acrylamide]
12 | – | 101 to 500 nM | < 100 nM | C=CC(=O)Nc1ccccc1Nc1nc(N[C@H]2CCCN(C(C)=O)C2)ncc1Cl [Compound I-115, (S)—N-(2-((2-((1-acetylpiperidin-3-yl)amino)-5-chloropyrimidin-4-yl)amino)phenyl)acrylamide]
13 | > 1000 nM | – | – | C=CC(=O)Nc1ccccc1Nc1nc(Nc2cc(F)ccc2C)ncc1C(F)(F)F [Compound I-285, N-(2-((2-((5-Fluoro-2-methylphenyl)amino)-5-(trifluoromethyl)pyrimidin-4-yl)amino)phenyl)acrylamide]
